{
  "source": "patent US20230073512A1",
  "about": "“MODULATORS OF CULLIN 3 ADAPTOR KBTBD4 AS ANTI-CANCER COMPOUNDS” (UNIVERSITE DE MONTREAL, priority 2019, published 2023)",
  "key": {"SKNO": {"system": "SKNO", "experiment": "Cell proliferation of cancerous cell lines", "assay_type": "cell-based", "details": "SKNO cell line; read-out: Antineoplastic effect on cell proliferation, IC50"}, "MUTZ-8": {"system": "MUTZ-8", "experiment": "Cell proliferation of cancerous cell lines", "assay_type": "cell-based", "details": "MUTZ-8 cell line; read-out: Antineoplastic effect on cell proliferation, IC50"}, "HL-60": {"system": "HL-60", "experiment": "Cell proliferation of cancerous cell lines", "assay_type": "cell-based", "details": "Homo sapiens; HL-60 cell line; read-out: Antineoplastic effect on cell proliferation, IC50"}, "MUTZ-2": {"system": "MUTZ-2", "experiment": "Cell proliferation of cancerous cell lines", "assay_type": "cell-based", "details": "MUTZ-2 cell line; read-out: Antineoplastic effect on cell proliferation, IC50"}, "KU-812": {"system": "KU-812", "experiment": "Cell proliferation of cancerous cell lines", "assay_type": "cell-based", "details": "Homo sapiens, KU812; KU-812 cell line; read-out: Antineoplastic effect on cell proliferation, IC50"}, "MonoMac": {"system": "MonoMac", "experiment": "Cell proliferation of cancerous cell lines", "assay_type": "cell-based", "details": "MonoMac cell line; read-out: Antineoplastic effect on cell proliferation, IC50"}, "KBM7": {"system": "KBM7", "experiment": "Cell proliferation of cancerous cell lines", "assay_type": "cell-based", "details": "KBM-7; KBM7 cell line; read-out: Antineoplastic effect on cell proliferation, IC50"}, "MOLM-13": {"system": "MOLM-13", "experiment": "Cell proliferation of cancerous cell lines", "assay_type": "cell-based", "details": "Homo sapiens; MOLM-13 cell line; read-out: Antineoplastic effect on cell proliferation, IC50"}, "NB-4": {"system": "NB-4", "experiment": "Cell proliferation of cancerous cell lines", "assay_type": "cell-based", "details": "Homo sapiens; NB-4 cell line; read-out: Antineoplastic effect on cell proliferation, IC50"}, "KG1a": {"system": "KG1a", "experiment": "Cell proliferation of cancerous cell lines", "assay_type": "cell-based", "details": "Homo sapiens, KG-1a; KG1a cell line; read-out: Antineoplastic effect on cell proliferation, IC50"}, "Z-138": {"system": "Z-138", "experiment": "Cell proliferation of cancerous cell lines", "assay_type": "cell-based", "details": "Homo sapiens; Z-138 cell line; read-out: Antineoplastic effect on cell proliferation, IC50"}, "EOL1": {"system": "EOL1", "experiment": "Cell proliferation of cancerous cell lines", "assay_type": "cell-based", "details": "Homo sapiens; EOL1 cell line; read-out: Antineoplastic effect on cell proliferation, IC50"}, "AML samples": {"system": "AML samples", "experiment": "Cell proliferation of cancerous samples from patients"}, "in vivo": {"experiment": "in vivo", "details": "mouse", "description": "PK assays were performed in mice (n=3). […] The following pharmacokinetic parameters were calculated.\nThe compounds were orally administered at 20 mg/kg and plasma samples were collected at 15, 30 minutes and 1, 2, 4, 6 and 8 hours after administration. The following pharmacokinetic parameters were calculated."}, "CB": {"system": "CB", "experiment": "Cell proliferation, CB sample of Table 2", "details": "read-out: Antineoplastic effect on cell proliferation, IC50"}, "AML5": {"system": "AML5", "experiment": "Cell proliferation of cancerous cell lines", "assay_type": "cell-based", "details": "AML5 cell line; read-out: Antineoplastic effect on cell proliferation, IC50"}, "UT-7": {"system": "UT-7", "experiment": "Cell proliferation of cancerous cell lines", "assay_type": "cell-based", "details": "Homo sapiens, UT7; UT-7 cell line; read-out: Antineoplastic effect on cell proliferation, IC50"}, "LY-1": {"system": "LY-1", "experiment": "Cell proliferation of cancerous cell lines", "assay_type": "cell-based", "details": "Ly1; LY-1 cell line; read-out: Antineoplastic effect on cell proliferation, IC50"}, "KG1": {"system": "KG1", "experiment": "Cell proliferation of cancerous cell lines", "assay_type": "cell-based", "details": "Homo sapiens, KG-1; KG1 cell line; read-out: Antineoplastic effect on cell proliferation, IC50"}, "AML3": {"system": "AML3", "experiment": "Cell proliferation of cancerous cell lines", "assay_type": "cell-based", "details": "AML3 cell line; read-out: Antineoplastic effect on cell proliferation, IC50"}, "AML4": {"system": "AML4", "experiment": "Cell proliferation of cancerous cell lines", "assay_type": "cell-based", "details": "AML4 cell line; read-out: Antineoplastic effect on cell proliferation, IC50"}},
  "note": "Read-outs that look alike come from different tables or passages of the source.",
  "data": [
    {"smiles": "Cn1nnc(-c2ccc3c(c2)[nH]c2ncnc(NCCCN4CCCCC4)c23)n1", "note": "[UM681]", "values": [
      {"measurement": "IC50", "setting": "SKNO", "result": "1 to 10", "unit": "µM"},
      {"measurement": "IC50", "setting": "MUTZ-8", "result": "> 10", "unit": "µM"},
      {"measurement": "IC50", "setting": "HL-60", "result": "1 to 10", "unit": "µM"},
      {"measurement": "IC50", "setting": "MUTZ-2", "result": "1 to 10", "unit": "µM"},
      {"measurement": "IC50", "setting": "KU-812", "result": "1 to 10", "unit": "µM"},
      {"measurement": "IC50", "setting": "MonoMac", "result": "1 to 10", "unit": "µM"},
      {"measurement": "IC50", "setting": "KBM7", "result": "> 10", "unit": "µM"},
      {"measurement": "IC50", "setting": "MOLM-13", "result": "0.25 to 1", "unit": "µM"},
      {"measurement": "IC50", "setting": "NB-4", "result": "1 to 10", "unit": "µM"},
      {"measurement": "IC50", "setting": "KG1a", "result": "1 to 10", "unit": "µM"},
      {"measurement": "IC50", "setting": "Z-138", "result": "1 to 10", "unit": "µM"},
      {"measurement": "IC50", "setting": "EOL1", "result": "0.25 to 1", "unit": "µM"},
      {"measurement": "IC50", "setting": "AML samples; read-out: Antineoplastic effect on cell proliferation, IC50, AML sample 04H063", "result": "1 to 10", "unit": "µM"},
      {"measurement": "IC50", "setting": "AML samples; read-out: Antineoplastic effect on cell proliferation, IC50, AML sample 05H094", "result": "1 to 10", "unit": "µM"},
      {"measurement": "IC50", "setting": "AML samples; read-out: Antineoplastic effect on cell proliferation, IC50, AML sample 05H149", "result": "1 to 10", "unit": "µM"},
      {"measurement": "IC50", "setting": "AML samples; read-out: Antineoplastic effect on cell proliferation, IC50, AML sample 06H045", "result": "1 to 10", "unit": "µM"},
      {"measurement": "IC50", "setting": "AML samples; read-out: Antineoplastic effect on cell proliferation, IC50, AML sample 06H088", "result": "> 10", "unit": "µM"},
      {"measurement": "IC50", "setting": "AML samples; read-out: Antineoplastic effect on cell proliferation, IC50, AML sample 06H117", "result": "1 to 10", "unit": "µM"},
      {"measurement": "IC50", "setting": "AML samples; read-out: Antineoplastic effect on cell proliferation, IC50, AML sample 07H005", "result": "1 to 10", "unit": "µM"},
      {"measurement": "IC50", "setting": "AML samples; read-out: Antineoplastic effect on cell proliferation, IC50, AML sample 07H038", "result": "1 to 10", "unit": "µM"},
      {"measurement": "IC50", "setting": "AML samples; read-out: Antineoplastic effect on cell proliferation, IC50, AML sample 07H045", "result": "> 10", "unit": "µM"},
      {"measurement": "IC50", "setting": "AML samples; read-out: Antineoplastic effect on cell proliferation, IC50, AML sample 07H125", "result": "1 to 10", "unit": "µM"},
      {"measurement": "IC50", "setting": "AML samples; read-out: Antineoplastic effect on cell proliferation, IC50, AML sample 07H135", "result": "1 to 10", "unit": "µM"},
      {"measurement": "IC50", "setting": "AML samples; read-out: Antineoplastic effect on cell proliferation, IC50, AML sample 07H151", "result": "> 10", "unit": "µM"},
      {"measurement": "IC50", "setting": "AML samples; read-out: Antineoplastic effect on cell proliferation, IC50, AML sample 08H018", "result": "> 10", "unit": "µM"},
      {"measurement": "IC50", "setting": "AML samples; read-out: Antineoplastic effect on cell proliferation, IC50, AML sample 09H010", "result": "1 to 10", "unit": "µM"},
      {"measurement": "IC50", "setting": "AML samples; read-out: Antineoplastic effect on cell proliferation, IC50, AML sample 09H046", "result": "> 10", "unit": "µM"},
      {"measurement": "IC50", "setting": "AML samples; read-out: Antineoplastic effect on cell proliferation, IC50, AML sample 09H079", "result": "1 to 10", "unit": "µM"},
      {"measurement": "IC50", "setting": "AML samples; read-out: Antineoplastic effect on cell proliferation, IC50, AML sample 09H115", "result": "1 to 10", "unit": "µM"},
      {"measurement": "IC50", "setting": "AML samples; read-out: Antineoplastic effect on cell proliferation, IC50, AML sample 10H022", "result": "0.25 to 1", "unit": "µM"},
      {"measurement": "IC50", "setting": "AML samples; read-out: Antineoplastic effect on cell proliferation, IC50, AML sample 10H127", "result": "1 to 10", "unit": "µM"},
      {"measurement": "IC50", "setting": "AML samples; read-out: Antineoplastic effect on cell proliferation, IC50, AML sample 11H002", "result": "1 to 10", "unit": "µM"},
      {"measurement": "IC50", "setting": "AML samples; read-out: Antineoplastic effect on cell proliferation, IC50, AML sample 11H046", "result": "0.25 to 1", "unit": "µM"},
      {"measurement": "IC50", "setting": "AML samples; read-out: Antineoplastic effect on cell proliferation, IC50, AML sample 11H103", "result": "1 to 10", "unit": "µM"},
      {"measurement": "IC50", "setting": "AML samples; read-out: Antineoplastic effect on cell proliferation, IC50, AML sample 12H045", "result": "1 to 10", "unit": "µM"},
      {"measurement": "IC50", "setting": "AML samples; read-out: Antineoplastic effect on cell proliferation, IC50, AML sample 12H058", "result": "1 to 10", "unit": "µM"},
      {"measurement": "IC50", "setting": "AML samples; read-out: Antineoplastic effect on cell proliferation, IC50, AML sample 12H096", "result": "> 10", "unit": "µM"},
      {"measurement": "IC50", "setting": "AML samples; read-out: Antineoplastic effect on cell proliferation, IC50, AML sample 12H106", "result": "> 10", "unit": "µM"},
      {"measurement": "IC50", "setting": "AML samples; read-out: Antineoplastic effect on cell proliferation, IC50, AML sample 12H151", "result": "1 to 10", "unit": "µM"},
      {"measurement": "IC50", "setting": "AML samples; read-out: Antineoplastic effect on cell proliferation, IC50, AML sample 13H100", "result": "1 to 10", "unit": "µM"},
      {"measurement": "IC50", "setting": "AML samples; read-out: Antineoplastic effect on cell proliferation, IC50, AML sample 13H150", "result": "1 to 10", "unit": "µM"},
      {"measurement": "bioavailability", "setting": "in vivo; female, po, 20 mg/kg", "result": 39, "unit": "%"},
      {"measurement": "bioavailability", "setting": "in vivo; male, po, 20 mg/kg", "result": 31, "unit": "%"},
      {"measurement": "Vd", "setting": "in vivo; iv, 1 mg/kg", "result": 14.3, "unit": "L/kg"},
      {"measurement": "clearance", "setting": "in vivo; iv, 1 mg/kg", "result": 109, "unit": "mL/min/kg"},
      {"measurement": "half-life", "setting": "in vivo; iv, 1 mg/kg", "result": 1.9, "unit": "h"},
      {"measurement": "AUC", "setting": "in vivo; po, 20 mg/kg", "result": 2.45, "unit": "µM·h"},
      {"measurement": "Cmax", "setting": "in vivo; po, 20 mg/kg", "result": 200, "unit": "nM"},
      {"measurement": "Tmax", "setting": "in vivo; po, 20 mg/kg", "result": 4, "unit": "h"},
      {"measurement": "IC50", "setting": "CB", "result": "1 to 10", "unit": "µM"},
      {"measurement": "IC50", "setting": "AML5", "result": "1 to 10", "unit": "µM"},
      {"measurement": "IC50", "setting": "UT-7", "result": "> 10", "unit": "µM"},
      {"measurement": "IC50", "setting": "LY-1", "result": "> 10", "unit": "µM"},
      {"measurement": "IC50", "setting": "KG1", "result": "1 to 10", "unit": "µM"},
      {"measurement": "IC50", "setting": "AML3", "result": "1 to 10", "unit": "µM"},
      {"measurement": "IC50", "setting": "AML4", "result": "0.25 to 1", "unit": "µM"}
    ]}
  ]
}
